According to paper PMC8016998, “Identification of potential therapeutic antimicrobial peptides against Acinetobacter baumannii in a mouse model of pneumonia” (Scientific Reports, 2021):
Values after ≈ are worked out from the molar mass of the structure shown. No end group written: not given here.

Assays:
[1] = test system: MDRAB clinical strain AK61; format: cell-based, Acinetobacter baumannii; details: strain AK61, 24 h 37 °C; for MIC: broth microdilution, LB; for MBC: subculture on LB agar
Experimental: (§1) MBC were determined by extending the MIC procedure in sterilized 96-well polypropylene microtiter plates according to the broth microdilution guidelines of the Clinical and Laboratory Standards Institute with some modification[47]. […] In addition, 10 µL was drawn from each well with no visible turbidity onto LB agar plates and incubated for 24 h at 37 °C. The lowest concentration showing no visible growth on agar subculture was used as the MBC value. All experiments were performed in triplicate.

[2] = test system: MDRAB clinical strain AZ93; format: cell-based, Acinetobacter baumannii; details: strain AZ93, 24 h 37 °C; for MIC: broth microdilution, LB; for MBC: subculture on LB agar
[3] = test system: MDRAB clinical strain AN10; format: cell-based, Acinetobacter baumannii; details: strain AN10, 24 h 37 °C; for MIC: broth microdilution, LB; for MBC: subculture on LB agar
[4] = test system: MDRAB clinical strain AS40; format: cell-based, Acinetobacter baumannii; details: strain AS40, 24 h 37 °C; for MIC: broth microdilution, LB; for MBC: subculture on LB agar
Experimental: as §1

[5] = test system: MDRAB clinical strain AG51; format: cell-based, Acinetobacter baumannii; details: strain AG51, 24 h 37 °C; for MIC: broth microdilution, LB; for MBC: subculture on LB agar
Experimental: as §1

[6] = test system: MDRAB clinical strains; format: cell-based, Acinetobacter baumannii; details: range over MDRAB clinical strains (details in Supplementary Table 2), 24 h 37 °C; for MBC: subculture on LB agar
[7] = test system: MDRAB clinical strain K2; format: cell-based, Acinetobacter baumannii; details: strain K2, 24 h 37 °C; for MIC: broth microdilution, LB; for MBC: subculture on LB agar
Experimental: as §1

[8] = test system: MDRAB clinical strain AL87; format: cell-based, Acinetobacter baumannii; details: strain AL87, 24 h 37 °C; for MIC: broth microdilution, LB; for MBC: subculture on LB agar
Experimental: as §1

[9] = test system: Acinetobacter baumannii 19,606; format: cell-based; details: 24 h at 37 °C, triplicate
[10] = test system: MDRAB clinical strain W11; format: cell-based, Acinetobacter baumannii; details: strain W11, 24 h 37 °C; for MIC: broth microdilution, LB; for MBC: subculture on LB agar
Experimental: as §1

[11] = test system: MDRAB clinical strain AF93; format: cell-based, Acinetobacter baumannii; details: strain AF93, 24 h 37 °C; for MIC: broth microdilution, LB; for MBC: subculture on LB agar
[12] = test system: MDRAB clinical strain U80; format: cell-based, Acinetobacter baumannii; details: strain U80, 24 h 37 °C; for MIC: broth microdilution, LB; for MBC: subculture on LB agar
[13] = test system: MDRAB clinical strain D29; format: cell-based, Acinetobacter baumannii; details: strain D29, 24 h 37 °C; for MIC: broth microdilution, LB; for MBC: subculture on LB agar
Experimental: as §1

[14] = test system: MDRAB clinical strain AK29; format: cell-based, Acinetobacter baumannii; details: strain AK29, 24 h 37 °C; for MIC: broth microdilution, LB; for MBC: subculture on LB agar
Experimental: as §1

[15] = test system: MDRAB clinical strain AE6; format: cell-based, Acinetobacter baumannii; details: strain AE6, 24 h 37 °C; for MIC: broth microdilution, LB; for MBC: subculture on LB agar
Experimental: as §1

[16] = test system: MDRAB clinical strain AF11; format: cell-based, Acinetobacter baumannii; details: strain AF11, 24 h 37 °C; for MIC: broth microdilution, LB; for MBC: subculture on LB agar
[17] = test system: Acinetobacter baumannii 17,978; format: cell-based; details: 24 h at 37 °C, triplicate; for MBC: 10 µL from wells without turbidity onto LB agar;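 for all read-outs here: CLSI broth microdilution in 96-well polypropylene plates, MBC taken as lowest concentration giving no growth when clear wells were subcultured on LB agar for 24 h at 37 °C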
[18] = test system: MDRAB clinical strain O59; format: cell-based, Acinetobacter baumannii; details: strain O59, 24 h 37 °C; for MIC: broth microdilution, LB; for MBC: subculture on LB agar
[19] = test system: MDRAB clinical strain L87; format: cell-based, Acinetobacter baumannii; details: strain L87, 24 h 37 °C; for MIC: broth microdilution, LB; for MBC: subculture on LB agar
Experimental: as §1

[20] = test system: MDRAB clinical strain AO80; format: cell-based, Acinetobacter baumannii; details: strain AO80, 24 h 37 °C; for MIC: broth microdilution, LB; for MBC: subculture on LB agar
[21] = test system: MDRAB clinical strain Y92; format: cell-based, Acinetobacter baumannii; details: strain Y92, 24 h 37 °C; for MIC: broth microdilution, LB; for MBC: subculture on LB agar
Experimental: as §1

[22] = test system: MDRAB clinical strain AF12; format: cell-based, Acinetobacter baumannii; details: strain AF12, 24 h 37 °C; for MIC: broth microdilution, LB; for MBC: subculture on LB agar
Experimental: as §1

[23] = test system: MDRAB clinical strain J49; format: cell-based, Acinetobacter baumannii; details: strain J49, 24 h 37 °C; for MIC: broth microdilution, LB; for MBC: subculture on LB agar
[24] = test system: MDRAB clinical strain AE5; format: cell-based, Acinetobacter baumannii; details: strain AE5, 24 h 37 °C; for MIC: broth microdilution, LB; for MBC: subculture on LB agar
Experimental: as §1

[25] = test system: MDRAB clinical strain U95; format: cell-based, Acinetobacter baumannii; details: strain U95, 24 h 37 °C; for MIC: broth microdilution, LB; for MBC: subculture on LB agar

Question: What does the source list for `CC[C@H](C)[C@H](NC(=O)CNC(=O)[C@@H](NC(=O)[C@H](CCCCN)NC(=O)[C@H](CCCCN)NC(=O)[C@H](Cc1ccccc1)NC(=O)[C@H](CC(C)C)NC(=O)[C@H](CCCCN)NC(=O)[C@H](Cc1c[nH]c2ccccc12)NC(=O)[C@@H](N)CCCCN)[C@@H](C)CC)C(=O)NCC(=O)N[C@@H](C)C(=O)N[C@H](C(=O)N[C@@H](CC(C)C)C(=O)N[C@@H](CCCCN)C(=O)N[C@H](C(=O)N[C@@H](CC(C)C)C(=O)N[C@H](C(=O)N[C@H](C(=O)NCC(N)=O)[C@@H](C)O)[C@@H](C)O)C(C)C)C(C)C` [CAME]?
Answer: MIC [1]: 8 µg/mL (≈ 3.64 µM); MBC [1]: 16 µg/mL (≈ 7.27 µM); MIC [2]: 8 µg/mL (≈ 3.64 µM); MBC [2]: 8 µg/mL (≈ 3.64 µM); MIC [3]: 16 µg/mL (≈ 7.27 µM); MBC [3]: 32 µg/mL (≈ 14.5 µM); MIC [4]: 8 µg/mL (≈ 3.64 µM); MBC [4]: 8 µg/mL (≈ 3.64 µM); MIC [5]: 16 µg/mL (≈ 7.27 µM); MBC [5]: 32 µg/mL (≈ 14.5 µM); MIC ([6]; broth microdilution, LB): 8 to 32 µg/mL; MBC [6]: 8 to 64 µg/mL; MIC [7]: 8 µg/mL (≈ 3.64 µM); MBC [7]: 16 µg/mL (≈ 7.27 µM); MIC [8]: 32 µg/mL (≈ 14.5 µM); MBC [8]: 32 µg/mL (≈ 14.5 µM); MBC ([9]; 10 µL from wells without turbidity onto LB agar): 32 µg/mL (≈ 14.5 µM); MIC ([9]; broth microdilution (CLSI, modified), LB medium, 5 × 10^5 CFU/mL): 32 µg/mL (≈ 14.5 µM); MIC [10]: 16 µg/mL (≈ 7.27 µM); MBC [10]: 32 µg/mL (≈ 14.5 µM); MIC [11]: 32 µg/mL (≈ 14.5 µM); MBC [11]: 32 µg/mL (≈ 14.5 µM); MIC [12]: 16 µg/mL (≈ 7.27 µM); MBC [12]: 32 µg/mL (≈ 14.5 µM); MIC [13]: 32 µg/mL (≈ 14.5 µM); MBC [13]: 32 µg/mL (≈ 14.5 µM); MIC [14]: 8 µg/mL (≈ 3.64 µM); MBC [14]: 16 µg/mL (≈ 7.27 µM); MIC [15]: 32 µg/mL (≈ 14.5 µM); MBC [15]: 32 µg/mL (≈ 14.5 µM); MIC [16]: 16 µg/mL (≈ 7.27 µM); MBC [16]: 32 µg/mL (≈ 14.5 µM); MBC [17]: 32 µg/mL (≈ 14.5 µM); MIC ([17]; broth microdilution (CLSI, modified), LB medium, 5 × 10^5 CFU/mL, lowest concentration with no visible growth): 32 µg/mL (≈ 14.5 µM); MIC [18]: 32 µg/mL (≈ 14.5 µM); MBC [18]: 64 µg/mL (≈ 29.1 µM); MIC [19]: 32 µg/mL (≈ 14.5 µM); MBC [19]: 64 µg/mL (≈ 29.1 µM); MIC [20]: 8 µg/mL (≈ 3.64 µM); MBC [20]: 16 µg/mL (≈ 7.27 µM); MIC [21]: 32 µg/mL (≈ 14.5 µM); MBC [21]: 32 µg/mL (≈ 14.5 µM); MIC [22]: 16 µg/mL (≈ 7.27 µM); MBC [22]: 16 µg/mL (≈ 7.27 µM); MIC [23]: 16 µg/mL (≈ 7.27 µM); MBC [23]: 32 µg/mL (≈ 14.5 µM); MIC [24]: 32 µg/mL (≈ 14.5 µM); MBC [24]: 32 µg/mL (≈ 14.5 µM); MIC [25]: 32 µg/mL (≈ 14.5 µM); MBC [25]: 64 µg/mL (≈ 29.1 µM)

Question: GLGSVFGRLARILGRVIPKV-NH2 [Pilosulin] was tested. Which MIC [1] did it give?
Answer: 16 µg/mL

Question: And the MBC [1]?
Answer: 16 µg/mL

Question: And the MIC [2]?
Answer: 16 µg/mL

Question: What about the MBC [2] of the same compound?
Answer: 16 µg/mL

Question: What about the MIC [3] of the same compound?
Answer: 8 µg/mL

Question: And the MBC [3]?
Answer: 8 µg/mL

Question: What about the MIC [4] of the same compound?
Answer: 16 µg/mL

Question: What about the MBC [4] of the same compound?
Answer: 16 µg/mL

Question: What about the MIC [5] of the same compound?
Answer: 8 µg/mL

Question: What about the MBC [5] of the same compound?
Answer: 16 µg/mL

Question: And the MBC [6]?
Answer: 8 to 32 µg/mL

Question: What about the MIC [7] of the same compound?
Answer: 16 µg/mL

Question: What about the MBC [7] of the same compound?
Answer: 32 µg/mL

Question: What about the MIC [8] of the same compound?
Answer: 8 µg/mL

Question: What about the MBC [8] of the same compound?
Answer: 8 µg/mL

Question: What about the MIC [10] of the same compound?
Answer: 16 µg/mL

Question: And the MBC [10]?
Answer: 16 µg/mL

Question: And the MIC [11]?
Answer: 8 µg/mL

Question: And the MBC [11]?
Answer: 8 µg/mL

Question: And the MIC [12]?
Answer: 16 µg/mL

Question: What about the MBC [12] of the same compound?
Answer: 16 µg/mL

Question: What about the MIC [13] of the same compound?
Answer: 16 µg/mL

Question: And the MBC [13]?
Answer: 32 µg/mL

Question: What about the MIC [14] of the same compound?
Answer: 16 µg/mL

Question: What about the MBC [14] of the same compound?
Answer: 16 µg/mL

Question: What about the MIC [15] of the same compound?
Answer: 16 µg/mL

Question: And the MBC [15]?
Answer: 16 µg/mL

Question: What about the MIC [16] of the same compound?
Answer: 8 µg/mL

Question: And the MBC [16]?
Answer: 16 µg/mL

Question: What about the MBC [17] of the same compound?
Answer: 32 µg/mL

Question: What about the MIC [18] of the same compound?
Answer: 16 µg/mL

Question: And the MBC [18]?
Answer: 16 µg/mL

Question: And the MIC [19]?
Answer: 16 µg/mL

Question: And the MBC [19]?
Answer: 16 µg/mL

Question: What about the MIC [20] of the same compound?
Answer: 16 µg/mL

Question: And the MBC [20]?
Answer: 32 µg/mL

Question: And the MIC [21]?
Answer: 8 µg/mL

Question: What about the MBC [21] of the same compound?
Answer: 8 µg/mL

Question: And the MIC [22]?
Answer: 8 µg/mL

Question: What about the MBC [22] of the same compound?
Answer: 16 µg/mL

Question: What about the MIC [23] of the same compound?
Answer: 16 µg/mL

Question: What about the MBC [23] of the same compound?
Answer: 16 µg/mL

Question: And the MIC [24]?
Answer: 8 µg/mL

Question: What about the MBC [24] of the same compound?
Answer: 16 µg/mL

Question: And the MIC [25]?
Answer: 32 µg/mL

Question: What about the MBC [25] of the same compound?
Answer: 32 µg/mL
